PubChem BioAssay AID1919010 (Molecular Pharmacology Branch, DTP, NCI, 2023)

System: Hs578T complex spheroid growth, percent test/control
Experiment: Anticancer human tumor Hs578T cell line growth inhibition [AhR];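 also: luminescent viability signal as a proxy for spheroid growth; spheroids exposed to agents for one week after three days of growth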
Details: for IC50: curve of first compound; for viability, T/C: stronger effect = lower value
Method in brief: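 Spheroids combined tumor cells with HUVEC endothelial cells and human MSCs as stroma. AhR antagonists were paired with standard or investigational drugs, each dosed in half-log steps down from near clinical Cmax, or from 10 microM where Cmax was unknown.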

[1] = second compound 0.1 µM, first compound 0.0316 µM
[2] = second compound 0.1 µM, first compound 0.1 µM
[3] = second compound 0.1 µM, first compound 0.316 µM
[4] = second compound 0.1 µM, first compound 1 µM
[5] = second compound 0.1 µM, first compound 3.16 µM
[6] = second compound 0.1 µM, first compound 10 µM
[7] = second compound 0.316 µM, first compound 0.0316 µM
[8] = second compound 0.316 µM, first compound 0.1 µM
[9] = second compound 0.316 µM, first compound 0.316 µM
[10] = second compound 0.316 µM, first compound 1 µM
[11] = second compound 0.316 µM, first compound 3.16 µM
[12] = second compound 0.316 µM, first compound 10 µM
[13] = second compound 1 µM, first compound 0.0316 µM
[14] = second compound 1 µM, first compound 0.1 µM
[15] = second compound 1 µM, first compound 0.316 µM
[16] = second compound 1 µM, first compound 1 µM
[17] = second compound 1 µM, first compound 3.16 µM
[18] = second compound 1 µM, first compound 10 µM
[19] = second compound 3.16 µM, first compound 0.0316 µM
[20] = second compound 3.16 µM, first compound 0.1 µM
[21] = second compound 3.16 µM, first compound 0.316 µM
[22] = second compound 3.16 µM, first compound 1 µM
[23] = second compound 3.16 µM, first compound 3.16 µM
[24] = second compound 3.16 µM, first compound 10 µM
[25] = second compound 10 µM, first compound 0.0316 µM
[26] = second compound 10 µM, first compound 0.1 µM
[27] = second compound 10 µM, first compound 0.316 µM
[28] = second compound 10 µM, first compound 1 µM
[29] = second compound 10 µM, first compound 3.16 µM
[30] = second compound 10 µM, first compound 10 µM

Which IC50 (second compound 0.1 µM) does the source give for `CC(C)c1c(-c2ccccc2)nc2c(C#N)c[nH]n2c1=O` + Cc1cncc(-c2nc(NCCc3c[nH]c4ccccc34)c3ncn(C(C)C)c3n2)c1 here?
The IC50 was greater than 10000 nM.

What about the IC50 (second compound 0.316 µM) of the same compound?
The IC50 was greater than 10000 nM.

What about the IC50 (second compound 1 µM) of the same compound?
Its IC50 is greater than 10000 nM.

What about the IC50 (second compound 3.16 µM) of the same compound?
Its IC50 is greater than 10000 nM.

And the IC50 (second compound 10 µM)?
The IC50 was less than 31.6 nM.

And the viability, T/C [1]?
Its viability, T/C is 114%.

What about the viability, T/C [2] of the same compound?
Its viability, T/C is 113%.

And the viability, T/C [3]?
Its viability, T/C is 110%.

What about the viability, T/C [4] of the same compound?
Its viability, T/C is 108%.

What about the viability, T/C [5] of the same compound?
Its viability, T/C is 109%.

What about the viability, T/C [6] of the same compound?
Its viability, T/C is 96.4%.

What about the viability, T/C [7] of the same compound?
Its viability, T/C is 112%.

And the viability, T/C [8]?
The viability, T/C was 104%.

What about the viability, T/C [9] of the same compound?
Its viability, T/C is 113%.

What about the viability, T/C [10] of the same compound?
Its viability, T/C is 103%.

And the viability, T/C [11]?
The viability, T/C was 109%.

And the viability, T/C [12]?
Its viability, T/C is 107%.

And the viability, T/C [13]?
The viability, T/C was 99.6%.

What about the viability, T/C [14] of the same compound?
Its viability, T/C is 101%.

And the viability, T/C [15]?
Its viability, T/C is 107%.

What about the viability, T/C [16] of the same compound?
The viability, T/C was 100%.

What about the viability, T/C [17] of the same compound?
The viability, T/C was 102%.

And the viability, T/C [18]?
The viability, T/C was 99.5%.

What about the viability, T/C [19] of the same compound?
The viability, T/C was 61.3%.

What about the viability, T/C [20] of the same compound?
The viability, T/C was 65.5%.

What about the viability, T/C [21] of the same compound?
Its viability, T/C is 68.6%.

And the viability, T/C [22]?
The viability, T/C was 62.9%.

What about the viability, T/C [23] of the same compound?
Its viability, T/C is 55.8%.

And the viability, T/C [24]?
Its viability, T/C is 66.9%.

And the viability, T/C [25]?
Its viability, T/C is 4.95%.

And the viability, T/C [26]?
The viability, T/C was 6.12%.

And the viability, T/C [27]?
Its viability, T/C is 4.81%.

What about the viability, T/C [28] of the same compound?
Its viability, T/C is 4.87%.

What about the viability, T/C [29] of the same compound?
Its viability, T/C is 5.51%.

What about the viability, T/C [30] of the same compound?
The viability, T/C was 7.39%.

Which results are given for `CC1COCCN1c1cc(-c2ccnn2C)c2ccnc(-c3ccn[nH]3)c2n1` (stereo not given) + Cc1cncc(-c2nc(NCCc3c[nH]c4ccccc34)c3ncn(C(C)C)c3n2)c1?
IC50 (second compound 0.1 µM): 589 nM; IC50 (second compound 0.316 µM): 662 nM; IC50 (second compound 1 µM): 342 nM; IC50 (second compound 3.16 µM): 104 nM; IC50 (second compound 10 µM): < 3.16 nM; viability, T/C (second compound 0.1 µM, first compound 0.00316 µM): 109%; viability, T/C (second compound 0.1 µM, first compound 0.01 µM): 117%; viability, T/C [1]: 109%; viability, T/C [2]: 96.8%; viability, T/C [3]: 55.8%; viability, T/C [4]: 45.1%; viability, T/C (second compound 0.316 µM, first compound 0.00316 µM): 108%; viability, T/C (second compound 0.316 µM, first compound 0.01 µM): 116%; viability, T/C [7]: 109%; viability, T/C [8]: 91.8%; viability, T/C [9]: 57.2%; viability, T/C [10]: 46%; viability, T/C (second compound 1 µM, first compound 0.00316 µM): 109%; viability, T/C (second compound 1 µM, first compound 0.01 µM): 116%; viability, T/C [13]: 103%; viability, T/C [14]: 81.7%; viability, T/C [15]: 50.6%; viability, T/C [16]: 38.5%; viability, T/C (second compound 3.16 µM, first compound 0.00316 µM): 62.9%; viability, T/C (second compound 3.16 µM, first compound 0.01 µM): 65%; viability, T/C [19]: 58.8%; viability, T/C [20]: 51.3%; viability, T/C [21]: 35.1%; viability, T/C [22]: 37.7%; viability, T/C (second compound 10 µM, first compound 0.00316 µM): 4.51%; viability, T/C (second compound 10 µM, first compound 0.01 µM): 3.84%; viability, T/C [25]: 4.82%; viability, T/C [26]: 4.52%; viability, T/C [27]: 4.47%; viability, T/C [28]: 7.62%

How did the IC50 (second compound 0.1 µM) turn out when `COc1ccc([C@@H](O)c2cc(-c3ncnc4cc(N5CCOCC5)ccc34)c(F)cc2Cl)nn1` + Cc1cncc(-c2nc(NCCc3c[nH]c4ccccc34)c3ncn(C(C)C)c3n2)c1 was run?
The IC50 was 5740 nM.

What about the IC50 (second compound 0.316 µM) of the same compound?
The IC50 was 5830 nM.

And the IC50 (second compound 1 µM)?
The IC50 was 5990 nM.

And the IC50 (second compound 3.16 µM)?
The IC50 was 2560 nM.

And the IC50 (second compound 10 µM)?
Its IC50 is less than 31.6 nM.

What about the viability, T/C [1] of the same compound?
The viability, T/C was 108%.

And the viability, T/C [2]?
The viability, T/C was 115%.

And the viability, T/C [3]?
The viability, T/C was 104%.

And the viability, T/C [4]?
Its viability, T/C is 86%.

And the viability, T/C [5]?
The viability, T/C was 61%.

And the viability, T/C [6]?
Its viability, T/C is 40.3%.

What about the viability, T/C [7] of the same compound?
Its viability, T/C is 112%.

What about the viability, T/C [8] of the same compound?
Its viability, T/C is 114%.

What about the viability, T/C [9] of the same compound?
Its viability, T/C is 109%.

And the viability, T/C [10]?
Its viability, T/C is 92.5%.

What about the viability, T/C [11] of the same compound?
Its viability, T/C is 59%.

And the viability, T/C [12]?
Its viability, T/C is 42.1%.

What about the viability, T/C [13] of the same compound?
Its viability, T/C is 103%.

And the viability, T/C [14]?
The viability, T/C was 118%.

And the viability, T/C [15]?
The viability, T/C was 102%.

And the viability, T/C [16]?
Its viability, T/C is 84.8%.

And the viability, T/C [17]?
The viability, T/C was 58.6%.

What about the viability, T/C [18] of the same compound?
The viability, T/C was 43.4%.

And the viability, T/C [19]?
The viability, T/C was 68.6%.

And the viability, T/C [20]?
The viability, T/C was 61%.

And the viability, T/C [21]?
The viability, T/C was 64.8%.

What about the viability, T/C [22] of the same compound?
Its viability, T/C is 56.2%.

What about the viability, T/C [23] of the same compound?
The viability, T/C was 48.4%.

What about the viability, T/C [24] of the same compound?
The viability, T/C was 36.1%.

And the viability, T/C [25]?
Its viability, T/C is 5%.

What about the viability, T/C [26] of the same compound?
Its viability, T/C is 4.23%.

What about the viability, T/C [27] of the same compound?
The viability, T/C was 5.09%.

And the viability, T/C [28]?
Its viability, T/C is 5.36%.

What about the viability, T/C [29] of the same compound?
The viability, T/C was 7.09%.

What about the viability, T/C [30] of the same compound?
Its viability, T/C is 9.8%.
